Drawing on US20260234163A1, “NOVEL COMPOUNDS AND USES THEREOF” (ACELINK THERAPEUTICS, INC., priority 2023, published 2026), this text covers IC50 and EC50 for 35 compounds.

SMILES strings stand for the structures.

Experiment [1] addresses T1, Keap1-Nrf2 (Homo sapiens, UniProt Q14145).
T1 construct: purchased Sino Biological 11981-H20B
Briefly: Keap1-Nrf2 Binding Inhibitory Activity Assay (fluorescence polarization, Keap1_FL + FITC-Nrf2 peptide). The note with it: Keap1-FL, 60 min room temperature. The method, then:
Example 2.1 Keap1-Nrf2 Binding Inhibitory Activity Assay
• PerkinElmer EnVision 2105 Multilabel Reader • PerkinElmer FITC FP dual emission Label 2100-8060 • LABCYTE Echo 650 • Corning 384-well microplate #4514 • Keap1_FL, Sino Biological, catalog 11981-H20B • FITC-Nrf2 peptide, GL Biochem, Lot No: p210427-XQ892761
• a) Reference titration • 1. Keap1-Nrf2 Assay Buffer was prepared: 10 mM Tris-HCl pH 7.4, 150 mM NaCl, 50 mM EDTA, 0.05% Tween20, 0.1 mg/ml BSA (freshly add before use). • 2. 2.04× Tracer working solution was prepared: 2.04 nM FITC-Nrf2 peptide in Assay Buffer from 1 μM DMSO stock. • 3. 2× Protein working solution was prepared: 25 nM Keap1-FL in Assay Buffer. • 4. 100× compound working solutions with DMSO were prepared. Starting from 100 μM, serial 3-fold dilutions (10 points) were made by the Echo on the 384-well LDV microplate, then 200 nL of compounds, in duplicated wells, were transferred to a Corning 4514 plate. • 5. 9.8 μL per well of the Tracer working solution was added into the Corning 4514 plate. • 6. 10 μL per well of the Protein working solution was added into the Corning 4514 plate, except for the first two columns where Dilution Buffer were added to serve as “positive control”. • 7. The plate was incubated at room temperature for 60 min. • b) Read data on an EnVision with the following setting: Excitation Light (%): 84; Measurement Height: 9.4; G-Factor: 1; Detector Gain 1:220; Detector Gain 2: 220; Flash Number: 50.
All the Test Compounds were considered as having Keap1-Nrf2 binding inhibitory activity.
A general note: Fluorescence polarisation rises when a labelled molecule tumbles more slowly, as on binding a larger partner.

The subject of experiment [2] is Nrf2. Briefly: Nrf2 Cellular Assay (pGL4.37[luc2P/ARE/Hygro] luciferase reporter in HepG2 cells). The note with it: ARE luciferase, 6 hours compound treatment. The format is cell-based. The procedure: Example 2.2 Nrf2 Cellular Assay
• 1. pGL4.37[luc2P/ARE/Hygro] vector was diluted to 25 ng/μL in Opti-MEM. • 2. Lipofectamine 3000 was added to a 2:1 lipid:DNA. The mixture was mixed by pipetting and incubate at room temperature for 15 minutes. • 3. HepG2 cells were cultured in complete medium (DMEM+10% FBS). • 4. Trypsin was added to the cells, which were filtered via a cell strainer to remove cell cluster, the cells were then quantified and diluted to 2×10^5 cells/ml in complete medium. • 5. The cells and plasmid were mixed, seeded to 384-well plate 50 μL per well (50 ng DNA/well) and incubated for 24 hours in a 37° C., 5% CO2 incubator.
• 1. Medium was removed from cells and replaced with 36 μL of DMEM+10% FBS per well. • 2. Incubated overnight in a 37° C., 5% CO2 incubator.
• 1. Test compound was serially diluted tin DMSO, and further diluted with DMEM (contains 10% FBS) to 10× final concentration. • 2. 4 μL of the 10× compound was added to each well, the plate was shaken for 10 sec on a plate shaker and incubated for 6 hours in a 37° C., 5% CO2 incubator.
• 1. Plates were removed from the 37° C., 5% CO2 incubator and allowed to cool to room temperature for approximately 15 minutes. • 2. 40 μL of the Glo Luciferase Assay System detection reagents were added, and the plate was shaken for 3 min and luminescence was measured.
In general terms: A reporter such as luciferase makes a cellular process visible.

In the case of `Cc1ccc2cc1CN(C)C(=O)c1ccc(cc1)COCCCn1nnc3c(C)c(ccc31)C2CC(=O)O` (single isomer, unassigned) [Compound 16, 2-(1^4,3^4,5-trimethyl-6-oxo-1^1H-9-oxa-5-aza-1(5,1)-benzo[d][1,2,3]triazola-3(1,3), 7(1,4)-dibenzenacyclododecaphane-2-yl)acetic acid], the IC50 – broadly, the concentration needed to halve the response being measured – in experiment [1] was in the range of 1000 to 10000 nM. As for `Cc1ccc2cc1CN(C)C(=O)c1ccc(cc1)COCCCn1nnc3c(C)c(ccc31)C2CC(=O)O` (single isomer, unassigned) [Compound 17, 2-(1^4,3^4,5-trimethyl-6-oxo-1^1H-9-oxa-5-aza-1(5,1)-benzo[d][1,2,3]triazola-3(1,3), 7(1,4)-dibenzenacyclododecaphane-2-yl)acetic acid], in experiment [2] (Homo sapiens, HepG2, 6 h), the EC50 (commonly the concentration needed to bring the measured effect to its halfway point) is greater than 30 µM. For the same compound, in experiment [1], the IC50 was in the range of 1000 to 10000 nM. On to `Cc1c2ccc3c1nnn3CCOCCOC1CCN(CC1)C(=O)c1ccc3ccc(cc3c1)C2CC(=O)O` (single isomer, unassigned) [Compound 18], for which the IC50 in experiment [1] lay within 1000 to 10000 nM. Regarding `Cc1c2ccc3c1nnn3CCOCCOC1CCN(CC1)C(=O)c1ccc3ccc(cc3c1)C2CC(=O)O` (single isomer, unassigned) [Compound 19], the IC50 in experiment [1] fell in the range of 1000 to 10000 nM. On the same count and under the same terms, in the case of `Cc1c2ccc3c1nnn3CCCOCc1ccc(cc1)C(=O)N(C)Cc1cncc(c1)C2CC(=O)O` (single isomer, unassigned) [Compound 20] it was 1000 to 10000 nM; in that of `Cc1c2ccc3c1nnn3CCCOCc1ccc(cc1)C(=O)N(C)Cc1cncc(c1)C2CC(=O)O` (single isomer, unassigned) [Compound 23], 1000 to 10000 nM. As to `Cc1c2ccc3c1nnn3CCCOCc1ccc(cc1)C(=O)N(C)Cc1cccc(n1)C2CC(=O)O` (single isomer, unassigned) [Compound 24], in experiment [1], the IC50 fell in the range of 100 to 1000 nM. With `Cc1c2ccc3c1nnn3CCCOCc1ccc(cc1)C(=O)N(C)Cc1cccc(n1)C2CC(=O)O` (single isomer, unassigned) [Compound 25], the IC50 in experiment [1] was 1000 to 10000 nM. Same read-out and setting: in the case of `Cc1c2ccc3c1nnn3CCCOCc1ccc(cc1)C(=O)N(C)Cc1cc(ccn1)C2CC(=O)O` (single isomer, unassigned) [Compound 26] it was 100 to 1000 nM; in that of `Cc1c2ccc3c1nnn3CCCOCc1ccc(cc1)C(=O)N(C)Cc1cc(ccn1)C2CC(=O)O` (single isomer, unassigned) [Compound 27], 1000 to 10000 nM; in that of `Cc1c2ccc3c1nnn3CCCCCC1CCN(CC1)C(=O)N1CCc3ccc(cc3C1)C2CC(=O)O` (single isomer, unassigned) [Compound 28], no more than 100 nM. Take `Cc1c2ccc3c1nnn3CCCCCC1CCN(CC1)C(=O)N1CCc3ccc(cc3C1)C2CC(=O)O` (single isomer, unassigned) [Compound 29]: the IC50 in experiment [1] is no more than 100 nM.

Consider `Cc1c2ccc3c1nnn3CCCCC1CCC(CC1)C(=O)N1CCc3ccc(cc3C1)C2CC(=O)O` (single isomer, unassigned) [Compound 47], for which the IC50 in experiment [1] is no more than 100 nM. Turning to `Cc1c2ccc3c1nnn3CCCCC1CCC(CC1)C(=O)N1CCc3ccc(cc3C1)C2CC(=O)O` (single isomer, unassigned) [Compound 48], the IC50 in experiment [1] is no more than 100 nM.

For `Cc1c2ccc3c1nnn3CCCCCC1CCC(CC1)C(=O)N1CCc3ccc(cc3C1)C2CC(=O)O` (single isomer, unassigned) [Compound 49], in experiment [1], the IC50 was no more than 100 nM. As for `Cc1c2ccc3c1nnn3CCCCCC1CCC(CC1)C(=O)N1CCc3ccc(cc3C1)C2CC(=O)O` (single isomer, unassigned) [Compound 50], the IC50 in experiment [1] is no more than 100 nM. Turning to `O=C(O)CC1c2ccc3c(c2)CN(CC3)C(=O)N2CCC(CCCCn3nnc4cc1cnc43)CC2` (single isomer, unassigned) [Compound 51], the IC50 in experiment [1] was in the range of 100 to 1000 nM. Still for that read-out and setting: in the case of `O=C(O)CC1c2ccc3c(c2)CN(CC3)C(=O)N2CCC(CCCCn3nnc4cc1cnc43)CC2` (single isomer, unassigned) [Compound 52] it was no more than 100 nM. Take `O=C(O)CC1c2ccc3c(c2)CN(CC3)C(=O)N2CCC(CCCCCn3nnc4cc1cnc43)CC2` (single isomer, unassigned) [Compound 53]: the 50% effective concentration (EC50) in experiment [2] (Homo sapiens, HepG2, 6 h) was 10 to 30 µM. Besides, the IC50 in experiment [1] is no more than 100 nM.

`O=C(O)CC1c2ccc3c(c2)CN(CC3)C(=O)N2CCC(CCCCCn3nnc4cc1cnc43)CC2` (single isomer, unassigned) [Compound 54] returned an EC50 in experiment [2] of no more than 10 µM. The IC50 in experiment [1] was no more than 100 nM. `Cc1c2ccc3c1nnn3CCCCOC1CCN(CC1)S(=O)(=O)N1CCc3ccc(cc3C1)C2CC(=O)O` (centres unmarked) [Compound 6, 2-(1^4-methyl-4,4-dioxido-3^1,3^2,3^3,3^4-tetrahydro-1^1H-6-oxa-4-thia-3(7,2)-isoquinolina-1(5,1)-benzo[d][1,2,3]triazola-5(1,4)-piperidinacyclodecaphane-2-yl)acetic acid]: the IC50 in experiment [1] is no more than 100 nM. Same read-out and setting: in the case of `Cc1c2ccc3c1nnn3CCOCCOC1CCN(CC1)C(=O)c1ccc3c(c1)CN(CC3)C2CC(=O)O` (centres unmarked) [Compound 9, 2-(carboxymethyl)-1^4-methyl-4-oxo-3^1,3^2,3^3,3^4-tetrahydro-1^1H-6,9-dioxa-3(2,7)-isoquinolin-2-iuma-1(5,1)-benzo[d][1,2,3]triazola-5(1,4)-piperidinacycloundecaphan-3^2-ium chloride] it was 1000 to 10000 nM; in that of `Cc1c2ccc3c1nnn3CCCCOc1ccc(cc1)S(=O)(=O)N1CCc3ccc(cc3C1)C2CC(=O)O` (centres unmarked) [Compound 13, 2-(1^4-methyl-4,4-dioxido-3^1,3^2,3^3,3^4-tetrahydro-1^1H-6-oxa-4-thia-3(7,2)-isoquinolina-1(5,1)-benzo[d][1,2,3]triazola-5(1,4)-benzenacyclodecaphane-2-yl)acetic acid], no more than 100 nM; in that of `Cc1c2ccc3c1nnn3CCOCCOC1CCN(CC1)S(=O)(=O)N1CCc3ccc(cc3C1)C2CC(=O)O` (centres unmarked) [Compound 15, 2-(1^4-methyl-4,4-dioxido-3^1,3^2,3^3,3^4-tetrahydro-1^1H-6,9-dioxa-4-thia-3(7,2)-isoquinolina-1(5,1)-benzo[d][1,2,3]triazola-5(1,4)-piperidinacycloundecaphane-2-yl)acetic acid], no more than 100 nM. On the same count and under the same terms, in the case of `Cc1c2ccc3c1nnn3CCCOCc1ccc(cc1)C(=O)N(C)Cc1ccnc(c1)C2CC(=O)O` (centres unmarked) [Compound 21] it was 100 to 1000 nM; in that of `Cc1c2ccc3c1nnn3CCCOCc1ccc(cc1)S(=O)(=O)N(C)Cc1cccc(c1)C2CC(=O)O` (centres unmarked) [Compound 22], 1000 to 10000 nM; in that of `Cc1c2ccc3c1nnn3CCCCCC1CCN(CC1)C(=O)N(C)Cc1cccc(c1)C2CC(=O)O` (centres unmarked) [Compound 31], 100 to 1000 nM. The same measure, in the same setting: in the case of `Cc1c2ccc3c1nnn3CCCCC1CCN(CC1)C(=O)N(C)Cc1cccc(c1)C2CC(=O)O` (centres unmarked) [Compound 32] it was 1000 to 10000 nM; in that of `Cc1c2ccc3c1nnn3CCCCC1CCC(CC1)C(=O)N(C)Cc1cccc(c1)C2CC(=O)O` (centres unmarked) [Compound 36], 100 to 1000 nM. For `Cc1c2ccc3c1nnn3CCCCCCCCNC(=O)N1CCc3ccc(cc3C1)C2CC(=O)O` (centres unmarked) [Compound 38], the IC50 in experiment [1] is no more than 100 nM. With `Cc1c2ccc3c1nnn3CCCCCCCCCC(=O)N1CCc3ccc(cc3C1)C2CC(=O)O` (centres unmarked) [Compound 41], the IC50 in experiment [1] is no more than 100 nM. For `Cc1c2ccc3c1nnn3CCCCCCC(=O)N1CCc3ccc(cc3C1)C2CC(=O)O` (centres unmarked) [Compound 42], in experiment [1], the IC50 is no more than 100 nM. Take `Cc1c2ccc3c1nnn3CCCCCNC(=O)N1CCc3ccc(cc3C1)C2CC(=O)O` (centres unmarked) [Compound 43]: the IC50 in experiment [1] was 1000 to 10000 nM.

As for `Cc1c2ccc3c1nnn3CCCCCC1CCN(CC1)C(=O)N(C)CCc1ccc(cc1)C2CC(=O)O` (centres unmarked) [Compound 44, 2-(14,6-dimethyl-7-oxo-11H-6-aza-1(5,1)-benzo[d][1,2,3]triazola-8(1,4)-piperidina-3(1,4)-benzenacyclotridecaphane-2-yl)acetic acid], the IC50 in experiment [1] lay in the range of 1000 to 10000 nM.

Regarding `Cc1c2ccc3c1nnn3CCCCC(=O)N1CCc3ccc(cc3C1)C2CC(=O)O` (centres unmarked) [Compound 46], in experiment [1], the IC50 was 100 to 1000 nM.
